# Structures can show the parent of a compound that is named as a salt.
# Biological target: T1, recombinant human TGR5 (Homo sapiens, UniProt Q8TDU6)
# T1 construct: expressed in transfected cells
# T1 sequence (Q8TDU6 1-330): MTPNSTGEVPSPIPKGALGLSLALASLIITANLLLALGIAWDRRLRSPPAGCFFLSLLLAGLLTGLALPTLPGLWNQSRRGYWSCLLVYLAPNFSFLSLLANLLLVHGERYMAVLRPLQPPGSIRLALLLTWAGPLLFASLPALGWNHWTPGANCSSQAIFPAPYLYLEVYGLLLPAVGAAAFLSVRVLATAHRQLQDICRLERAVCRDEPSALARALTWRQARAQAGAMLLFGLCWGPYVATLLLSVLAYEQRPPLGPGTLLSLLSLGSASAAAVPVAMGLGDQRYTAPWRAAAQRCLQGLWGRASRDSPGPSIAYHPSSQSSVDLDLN
# Assay: cAMP assay (cAMP accumulation, HTRF) in CHOK1 cells stably expressing TGR5
# Type: cell-based
# Conditions: CHOK1 cells stably expressing human TGR5, 30 minutes at RT, 1% DMSO
# In short: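 CHOK1 cells stably expressing TGR5 (text also calls it chimeric human/mouse), 0.4-0.5×10^6 cells/mL in PBS with Ca/Mg and 0.1 mM IBMX, compound 30 min at RT, 1% DMSO. cAMP by HTRF 665/620 interpolated to a standard curve; EC50 from 4-parameter fit as half-maximal increase.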
row,Structure (SMILES),EC50
1,"Cc1c(Cl)cccc1OCCOC(=O)N1C[C@@H]2C[C@@H]2c2c(-c3cnn(Cc4cc(C(=O)NCC5(C(=O)O)CC5)ccc4Cl)c3)cccc21 [Example 699, 1-((4-Chloro-3-((4-((1aR,7bS)-3-((2-(3-chloro-2-methylphenoxy)ethoxy)carbonyl)-1a,2,3,7b-tetrahydro-1H-cyclopropa[c]quinolin-7-yl)-1H-pyrazol-1-yl)methyl)benzamido)methyl) cyclopropanecarboxylic acid]",41 nM
2,"Cc1c(Cl)cccc1OCCCC(=O)N1CCCOc2c(-c3cnn(Cc4ccc(C(=O)NCS(=O)(=O)O)cc4F)c3)cccc21 [Example 719, (4-((4-(5-(4-(3-Chloro-2-methylphenoxy)butanoyl)-2,3,4,5-tetrahydrobenzo[b][1,4]oxazepin-9-yl)-1H-pyrazol-1-yl)methyl)-3-fluorobenzamido)methanesulfonic acid]",188 nM
3,"Cc1c(Cl)cccc1OCCCC(=O)N1CCCCc2c(-c3cnn(Cc4cccc(C(=O)NCCC(=O)O)c4)c3)cccc21 [Example 730, 3-(3-((4-(1-(4-(3-Chloro-2-methylphenoxy)butanoyl)-2,3,4,5-tetrahydro-1H-benzo[b]azepin-6-yl)-1H-pyrazol-1-yl)methyl)benzamido)propanoic acid]",188 nM
4,"Cc1c(Cl)cccc1OCCCC(=O)N1CCCOc2c(-c3cnn(Cc4ccc(C(=O)N[C@@H](CC(=O)O)C(=O)O)cc4)c3)cccc21 [Example 767, (S)-2-(4-((4-(5-(4-(3-Chloro-2-methylphenoxy)butanoyl)-2,3,4,5-tetrahydrobenzo[b][1,4]oxazepin-9-yl)-1H-pyrazol-1-yl)methyl)benzamido)succinic acid]",1520 nM
5,"Cc1cccc(OCCCC(=O)N2CCCc3c(-c4cnn(Cc5cccc(C(=O)N(C)CCS(=O)(=O)O)c5)c4)cccc32)c1C [Example 829, 2-(3-((4-(1-(4-(2,3-Dimethylphenoxy)butanoyl)-1,2,3,4-tetrahydroquinolin-5-yl)-1H-pyrazol-1-yl)methyl)-N-methylbenzamido)ethanesulfonic acid]",1350 nM
6,"Cc1cccc(OCCCC(=O)N2CCCc3c(-c4cnn(Cc5cccc(C(=O)N6CCCC(CO)C6)c5)c4)cccc32)c1C (centres unmarked) [Example 830, 4-(2,3-Dimethylphenoxy)-1-(5-(1-(3-(3-(hydroxymethyl)piperidine-1-carbonyl)benzyl)-1H-pyrazol-4-yl)-3,4-dihydroquinolin-1(2H)-yl)butan-1-one]",176 nM
7,"Cc1cccc(OCCCC(=O)N2CCCc3c(-c4cnn(Cc5cccc(C(=O)N6CCC(CO)CC6)c5)c4)cccc32)c1C [Example 836, 4-(2,3-Dimethylphenoxy)-1-(5-(1-(3-(4-(hydroxymethyl)piperidine-1-carbonyl)benzyl)-1H-pyrazol-4-yl)-3,4-dihydroquinolin-1(2H)-yl)butan-1-one]",173 nM
8,"Cc1cccc(OCCCC(=O)N2CCCc3c(-c4cnn(Cc5cccc(C(=O)N[C@@H](Cc6ccccc6)C(=O)O)c5)c4)cccc32)c1C [Example 848, (S)-2-(3-((4-(1-(4-(2,3-Dimethylphenoxy)butanoyl)-1,2,3,4-tetrahydroquinolin-5-yl)-1H-pyrazol-1-yl)methyl)benzamido)-3-phenylpropanoic acid]",196 nM
9,"Cc1cccc(OCCCC(=O)N2CCCc3c(-c4cnn(Cc5cccc(C(=O)N6CCC(C(=O)O)C6)c5)c4)cccc32)c1C (centres unmarked) [Example 859, 1-(3-((4-(1-(4-(2,3-Dimethylphenoxy)butanoyl)-1,2,3,4-tetrahydroquinolin-5-yl)-1H-pyrazol-1-yl)methyl)benzoyl)pyrrolidine-3-carboxylic acid]",1360 nM
10,"Cc1cccc(OCCCC(=O)N2CCCc3c(-c4cnn(Cc5cccc(C(=O)N[C@@H](C)C(=O)O)c5)c4)cccc32)c1C [Example 864, (S)-2-(3-((4-(1-(4-(2,3-Dimethylphenoxy)butanoyl)-1,2,3,4-tetrahydroquinolin-5-yl)-1H-pyrazol-1-yl)methyl)benzamido)propanoic acid]",193 nM
11,"Cc1cccc(OCCCC(=O)N2C[C@@H]3C[C@@H]3c3c(-c4cnn(Cc5cccc(C(=O)NCC(=O)O)c5)c4)cccc32)c1C [Example 878, 2-(3-((4-((1aR,7bS)-3-(4-(2,3-Dimethylphenoxy)butanoyl)-1a,2,3,7b-tetrahydro-1H-cyclopropa[c]quinolin-7-yl)-1H-pyrazol-1-yl)methyl)benzamido)acetic acid]",42 nM
12,"Cc1cccc(OCCCC(=O)N2C[C@@H]3C[C@@H]3c3c(-c4cnn(Cc5cccc(C(=O)N(CC(=O)O)CC(=O)O)c5)c4)cccc32)c1C [Example 882, 2,2′-(3-((4-((1aR,7bS)-3-(4-(2,3-Dimethylphenoxy)butanoyl)-1a,2,3,7b-tetrahydro-1H-cyclopropa[c]quinolin-7-yl)-1H-pyrazol-1-yl)methyl)benzoylazanediyl) diacetic acid]",1340 nM
13,"Cc1cccc(OCCCC(=O)N2C[C@@H]3C[C@@H]3c3c(-c4cnn(Cc5cccc(C(=O)NC[C@@H](N)C(=O)O)c5)c4)cccc32)c1C [Example 887, (R)-2-Amino-3-(3-((4-((1aR,7bS )-3-(4-(2,3-dimethylphenoxy)butanoyl)-1a,2,3,7b-tetrahydro-1H-cyclopropa[c]quinolin-7-yl)-1H-pyrazol-1-yl)methyl)benzamido)propanoic acid]",184 nM
14,"Cc1cccc(OCCCC(=O)N2C[C@@H]3C[C@@H]3c3c(-c4cnn(Cc5cccc(C(=O)N[C@H]6CCOC6=O)c5)c4)cccc32)c1C [Example 891, 3-((4-((1aR,7bS)-3-(4-(2,3-Dimethylphenoxy)butanoyl)-1a,2,3,7b-tetrahydro-1H-cyclopropa[c]quinolin-7-yl)-1H-pyrazol-1-yl)methyl)-N-((S)-2-oxotetrahydrofuran-3-yl)benzamide]",26 nM

# Results, then the compound that gave them:
row,EC50,Structure (SMILES)
1,46 nM,"Cc1c(Cl)cccc1OCCCC(=O)N1CCCOc2c(-c3cnn(Cc4c(F)cc(C(=O)NCS(=O)(=O)O)cc4Cl)c3)cccc21 [Example 702, (3-Chloro-4-((4-(5-(4-(3-chloro-2-methylphenoxy)butanoyl)-2,3,4,5-tetrahydrobenzo[b][1,4]oxazepin-9-yl)-1H-pyrazol-1-yl)methyl)-5-fluorobenzamido)methanesulfonic acid]"
2,46 nM,"Cc1c(Cl)cccc1OCCCC(=O)N1CCCOc2c(-c3cnn(Cc4c(F)cc(C(=O)NCCS(=O)(=O)O)cc4Cl)c3)cccc21 [Example 703, 2-(3-Chloro-4-((4-(5-(4-(3-chloro-2-methylphenoxy)butanoyl)-2,3,4,5-tetrahydrobenzo[b][1,4]oxazepin-9-yl)-1H-pyrazol-1-yl)methyl)-5-fluorobenzamido)ethanesulfonic acid]"
3,1300 nM,"Cc1c(Cl)cccc1OCCCC(=O)N1CCCOc2c(-c3cnn(Cc4c(F)cc(C(=O)NCC[N+](C)(C)C)cc4F)c3)cccc21 [Example 724, 2-(4-((4-(5-(4-(3-Chloro-2-methylphenoxy)butanoyl)-2,3,4,5-tetrahydrobenzo[b][1,4]oxazepin-9-yl)-1H-pyrazol-1-yl)methyl)-3,5-difluorobenzamido)-N,N,N-trimethylethanaminium, TFA salt]"
4,200 nM,"Cc1c(Cl)cccc1OCCCC(=O)N1Cc2ccccc2Oc2c(-c3cnn(Cc4c(F)cc(C(=O)NCCC(=O)O)cc4Cl)c3)cccc21 [Example 784, 3-(3-Chloro-4-((4-(10-(4-(3-chloro-2-methylphenoxy)butanoyl)-10,11-dihydrodibenzo[b,f][1,4]oxazepine-6-yl)-1H-pyrazol-1-yl)methyl)-5-fluorobenzamido)propanoic acid]"
5,173 nM,"Cc1c(Cl)cccc1OCCCC(=O)N1CCCOc2c(-c3cnn(Cc4c(F)cc(C(=O)NCC(=O)O)cc4Cl)c3)cccc21 [Example 786, 2-(3-Chloro-4-((4-(5-(4-(3-chloro-2-methylphenoxy)butanoyl)-2,3,4,5-tetrahydrobenzo[b][1,4]oxazepin-9-yl)-1H-pyrazol-1-yl)methyl)-5-fluorobenzamido)acetic acid]"
6,185 nM,"Cc1c(Cl)cccc1OCCCC(=O)N1CCCOc2c(-c3cnn(Cc4c(F)cc(C(=O)N[C@@H](CCCCN)C(=O)O)cc4Cl)c3)cccc21 [Example 792, (S)-6-Amino-2-(3-chloro-4-((4-(5-(4-(3-chloro-2-methylphenoxy)butanoyl)-2,3,4,5-tetrahydrobenzo[b][1,4]oxazepin-9-yl)-1H-pyrazol-1-yl)methyl)-5-fluorobenzamido)hexanoic acid]"
7,1330 nM,"Cc1c(Cl)cccc1OC(C)(C)COC(=O)N1CCCOc2c(-c3cnn(Cc4c(F)cc(C(=O)NCCS(=O)(=O)O)cc4Cl)c3)cccc21 [Example 807, 2-(3-Chloro-4-((4-(5-((2-(3-chloro-2-methylphenoxy)-2-methylpropoxy)carbonyl)-2,3,4,5-tetrahydrobenzo[b][1,4]oxazepin-9-yl)-1H-pyrazol-1-yl)methyl)-5-fluorobenzamido)ethanesulfonic acid]"
8,1340 nM,"Cc1c(Cl)cccc1OC(C)(C)COC(=O)N1CCCOc2c(-c3cnn(Cc4c(F)cc(C(=O)NCCC(=O)O)cc4Cl)c3)cccc21 [Example 808, 3-(3-Chloro-4-((4-(5-((2-(3-chloro-2-methylphenoxy)-2-methylpropoxy)carbonyl)-2,3,4,5-tetrahydrobenzo[b][1,4]oxazepin-9-yl)-1H-pyrazol-1-yl)methyl)-5-fluorobenzamido)propanoic acid]"
9,2000 nM,Cc1c(Cl)cccc1Oc1cccc(C(=O)N2CCCOc3c(-c4cnn(Cc5c(F)cc(C(=O)NCCC(=O)O)cc5Cl)c4)cccc32)c1 [Example 815]

# Source: US9062028B2, “Bicyclic nitrogen containing heteroaryl TGR5 receptor modulators” (Bristol-Myers Squibb Company, priority 2011, dated 2015)
